We go through 30 molecules from patent US9505762B2, “Purine derivatives as CB2 receptor agonists” (Hoffmann-La Roche Inc., priority 2013, dated 2016).

As a reminder, the EC50 is the concentration at which the effect is half-maximal. Low values mean an effect from little substance, high ones a need for much substance.

Assay [1] concerns the target human CB2 receptors (Homo sapiens (Human), UniProt P34972). Nature of the assay: functional cAMP assay, CB2. The note with it: CHO cells expressing human CB2. The assay is classed as cell-based. Here is the method:
(§1) The growth medium was exchanged with Krebs Ringer Bicarbonate buffer with 1 mM IBMX and incubated at 30° C. for 30 min. Compounds were added to a final assay volume of 100 μl and incubated for 30 min at 30° C. Using the cAMP-Nano-TRF detection kit the assay (Roche Diagnostics) was stopped by the addition of 50 μl lysis reagent (Tris, NaCl, 1.5% Triton X100, 2.5% NP40, 10% NaN3) and 50 μl detection solutions (20 μM mAb Alexa700-cAMP 1:1, and 48 μM Ruthenium-2-AHA-cAMP) and shaken for 2 h at room temperature. The time-resolved energy transfer is measured by a TRF reader (Evotec Technologies GmbH), equipped with a ND:YAG laser as excitation source. The plate is measured twice with the excitation at 355 nm and at the emission with a delay of 100 ns and a gate of 100 ns, total exposure time 10 s at 730 (bandwidth 30 nm) or 645 nm (bandwidth 75 nm), respectively.
(§2) EC50 values were determined using Activity Base analysis (ID Business Solution, Limited).
On the technique in general: Cyclic AMP is a second messenger, typically raised through Gs and lowered through Gi signalling.

In assay [2] the target is human CB1 receptors (Homo sapiens (Human), UniProt P21554). Kind of assay: functional cAMP assay, CB1. The note with it: CHO cells expressing human CB1. Format: cell-based. Here is the method:
as §1, §2

The structures appear in SMILES notation.

Chain of human CB2 receptors (P34972 whole entry): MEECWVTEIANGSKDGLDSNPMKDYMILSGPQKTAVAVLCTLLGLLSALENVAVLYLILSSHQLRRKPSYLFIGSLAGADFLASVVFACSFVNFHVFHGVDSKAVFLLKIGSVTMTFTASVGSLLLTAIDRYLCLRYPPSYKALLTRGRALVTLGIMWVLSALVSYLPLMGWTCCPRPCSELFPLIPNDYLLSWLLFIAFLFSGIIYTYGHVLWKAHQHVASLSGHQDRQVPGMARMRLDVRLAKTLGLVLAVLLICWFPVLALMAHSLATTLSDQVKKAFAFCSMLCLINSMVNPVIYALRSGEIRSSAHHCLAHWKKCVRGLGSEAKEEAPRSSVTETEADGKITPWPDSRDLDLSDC
Chain of human CB1 receptors (P21554 whole entry): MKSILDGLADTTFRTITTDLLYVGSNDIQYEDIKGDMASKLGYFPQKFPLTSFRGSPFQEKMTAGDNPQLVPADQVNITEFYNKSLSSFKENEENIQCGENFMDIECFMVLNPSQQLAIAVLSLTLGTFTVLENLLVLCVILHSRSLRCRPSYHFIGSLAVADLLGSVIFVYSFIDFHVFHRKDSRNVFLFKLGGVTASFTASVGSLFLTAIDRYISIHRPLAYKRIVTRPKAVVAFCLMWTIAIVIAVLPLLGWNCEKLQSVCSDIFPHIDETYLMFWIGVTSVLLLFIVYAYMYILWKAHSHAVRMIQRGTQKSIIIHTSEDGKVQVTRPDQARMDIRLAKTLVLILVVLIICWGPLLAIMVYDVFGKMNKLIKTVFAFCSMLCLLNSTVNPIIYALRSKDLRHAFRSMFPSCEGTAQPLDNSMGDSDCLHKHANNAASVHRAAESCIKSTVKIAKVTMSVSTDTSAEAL

For the molecule `CC(=O)N[C@H]1CCN(c2nc(C(C)(C)C)nc3c2ncn3Cc2ncccc2Cl)C1` [Example 54, N—[(S)-1-[2-tert-butyl-9-[(3-chloropyridin-2-yl)methyl]purin-6-yl]pyrrolidin-3-yl]acetamide], the EC50 was 0.388 µM in assay [1] and above 10 µM in assay [2].
Take `CC(C)(C)c1nc(N2CCC3(COC3)C2)c2ncn(Cc3ccccc3Cl)c2n1` [Example 56, 7-[2-tert-butyl-9-[(2-chlorophenyl)methyl]purin-6-yl]-2-oxa-7-azaspiro[3.4]octane]: the EC50 in assay [1] is 0.0558 µM; in assay [2], above 10 µM.
The corresponding values for `CC(C)(C)c1nc(N2CCC3(COC3)C2)c2ncn(Cc3cccc(Cl)c3)c2n1` [Example 57, 7-[2-tert-butyl-9-[(3-chlorophenyl)methyl]purin-6-yl]-2-oxa-7-azaspiro[3.4]octane] are 0.467 µM and above 10 µM.
The corresponding values for `CC(C)(C)c1nc(N2CCC3(COC3)C2)c2ncn(Cc3ccc(Cl)cc3)c2n1` [Example 58, 7-[2-tert-butyl-9-[(4-chlorophenyl)methyl]purin-6-yl]-2-oxa-7-azaspiro[3.4]octane] are 0.506 µM and above 10 µM.
On to `CC(C)(C)c1nc(N2CCC3(COC3)C2)c2ncn(Cc3ccccc3C(F)(F)F)c2n1` [Example 59, 7-[2-tert-butyl-9-[[2-(trifluoromethyl)phenyl]methyl]purin-6-yl]-2-oxa-7-azaspiro[3.4]octane], for which the EC50 in assay [1] is 0.0167 µM; in assay [2] it was above 10 µM.
The corresponding values for `CC(C)(C)c1nc(N2CCC3(COC3)C2)c2ncn(Cc3ccccc3S(C)(=O)=O)c2n1` [Example 60, 7-[2-tert-butyl-9-[(2-methylsulfonylphenyl)methyl]purin-6-yl]-2-oxa-7-azaspiro[3.4]octane] are 0.175 µM and above 10 µM.
Regarding `CC(C)(C)c1nc(N2CCC3(COC3)C2)c2ncn(Cc3cccnc3Cl)c2n1` [Example 61, 7-[2-tert-butyl-9-[(2-chloropyridin-3-yl)methyl]purin-6-yl]-2-oxa-7-azaspiro[3.4]octane], the EC50 is 0.0296 µM in assay [1] and above 10 µM in assay [2].
As to `Cc1nonc1Cn1cnc2c(N3CCC4(COC4)C3)nc(C(C)(C)C)nc21` [Example 62, 7-[2-tert-butyl-9-[(4-methyl-1,2,5-oxadiazol-3-yl)methyl]purin-6-yl]-2-oxa-7-azaspiro[3.4]octane], the EC50 was 0.146 µM in assay [1] and above 10 µM in assay [2].
`COCCn1cnc2c(N3CCC4(COC4)C3)nc(C(C)(C)C)nc21` [Example 63, 7-[2-tert-butyl-9-(2-methoxyethyl)purin-6-yl]-2-oxa-7-azaspiro[3.4]octane]: the EC50 is 0.661 µM in assay [1] and above 10 µM in assay [2].
In the case of `CC1(O)CCN(c2nc(C(C)(C)C)nc3c2ncn3Cc2ccccc2Cl)C1` (stereo not drawn) [Example 64, 1-[2-tert-butyl-9-[(2-chlorophenyl)methyl]purin-6-yl]-3-methylpyrrolidin-3-ol], the EC50 in assay [1] was 0.0134 µM; in assay [2] it was above 10 µM.
For `CC1(O)CCN(c2nc(C(C)(C)C)nc3c2ncn3Cc2cccc(Cl)c2)C1` (stereo not drawn) [Example 65, 1-[2-tert-butyl-9-[(3-chlorophenyl)methyl]purin-6-yl]-3-methylpyrrolidin-3-ol] the same measures were 0.0916 µM and above 10 µM.
Turning to `CC1(O)CCN(c2nc(C(C)(C)C)nc3c2ncn3Cc2ccccc2C(F)(F)F)C1` (stereo not drawn) [Example 67, 1-[2-tert-butyl-9-[[2-(trifluoromethyl)phenyl]methyl]purin-6-yl]-3-methylpyrrolidin-3-ol], the EC50 in assay [1] was 0.009 µM; in assay [2] it was above 10 µM.
For `CC1(O)CCN(c2nc(C(C)(C)C)nc3c2ncn3Cc2cccnc2Cl)C1` (stereo not drawn) [Example 68, 1-[2-tert-butyl-9-[(2-chloropyridin-3-yl)methyl]purin-6-yl]-3-methylpyrrolidin-3-ol] the same measures were 0.0248 µM and above 10 µM.
The corresponding values for `CC1(O)CCN(c2nc(C(C)(C)C)nc3c2ncn3Cc2ncccc2Cl)C1` (stereo not drawn) [Example 69, 1-[2-tert-butyl-9-[(3-chloropyridin-2-yl)methyl]purin-6-yl]-3-methylpyrrolidin-3-ol] are 0.0468 µM and above 10 µM.
Turning to `CC1(O)CCN(c2nc(C(C)(C)C)nc3c2ncn3Cc2ccccc2S(C)(=O)=O)C1` (stereo not drawn) [Example 74, 1-[2-tert-butyl-9-[(2-methylsulfonylphenyl)methyl]purin-6-yl]-3-methylpyrrolidin-3-ol], the EC50 in assay [1] was 0.0884 µM; in assay [2], above 10 µM.
For `CC(=O)N[C@H]1CCN(c2nc(C(C)(C)C)nc3c2ncn3Cc2c[nH]nc2C(F)(F)F)C1` [Example 75, N—[(S)-1-[2-tert-butyl-9-[[3-(trifluoromethyl)-1H-pyrazol-4-yl]methyl]purin-6-yl]pyrrolidin-3-yl]acetamide] the same measures were 0.28 µM and above 10 µM.
The corresponding values for `CC(C)(C)c1nc(N2CCC3(COC3)C2)c2ncn(Cc3c[nH]nc3C(F)(F)F)c2n1` [Example 76, 7-[2-tert-butyl-9-[[3-(trifluoromethyl)-1H-pyrazol-4-yl]methyl]purin-6-yl]-2-oxa-7-azaspiro[3.4]octane] are 0.153 µM and above 10 µM.
Turning to `CC(=O)N[C@H]1CCN(c2nc(C(C)(C)C)nc3c2ncn3Cc2n[nH]cc2C(F)(F)F)C1` [Example 77, N—[(S)-1-[2-tert-butyl-9-[[4-(trifluoromethyl)-1H-pyrazol-3-yl]methyl]purin-6-yl]pyrrolidin-3-yl]acetamide], the EC50 in assay [1] is 0.205 µM; in assay [2], above 10 µM.
For `CC(C)(C)c1nc(N2CCC3(COC3)C2)c2ncn(Cc3n[nH]cc3C(F)(F)F)c2n1` [Example 78, 7-[2-tert-butyl-9-[[4-(trifluoromethyl)-1H-pyrazol-3-yl]methyl]purin-6-yl]-2-oxa-7-azaspiro[3.4]octane] the same measures were 0.0175 µM and above 10 µM.
As to `Cc1nnc(Cn2cnc3c(N4CC(F)(F)C(F)(F)C4)nc(C(C)(C)C)nc32)o1` [Example 79, 2-[[2-tert-butyl-6-(3,3,4,4-tetrafluoropyrrolidin-1-yl)purin-9-yl]methyl]-5-methyl-1,3,4-oxadiazole], the EC50 in assay [1] is 0.116 µM; in assay [2], above 10 µM.
Regarding `Cc1noc(Cn2cnc3c(N4CC(F)(F)C(F)(F)C4)nc(C(C)(C)C)nc32)n1` [Example 80, 5-[[2-tert-butyl-6-(3,3,4,4-tetrafluoropyrrolidin-1-yl)purin-9-yl]methyl]-3-methyl-1,2,4-oxadiazole], the EC50 is 0.179 µM in assay [1] and above 10 µM in assay [2].
The corresponding values for `COCCn1cnc2c(N3CC(F)(F)C(F)(F)C3)nc(C(C)(C)C)nc21` [Example 83, 2-tert-butyl-9-(2-methoxyethyl)-6-(3,3,4,4-tetrafluoropyrrolidin-1-yl)purine] are 0.0646 µM and above 10 µM.
With `CC1(O)CCN(c2nc(C(C)(C)C)nc3c2ncn3Cc2c[nH]nc2C(F)(F)F)C1` (stereo not drawn) [Example 84, 1-[2-tert-butyl-9-[[3-(trifluoromethyl)-1H-pyrazol-4-yl]methyl]purin-6-yl]-3-methylpyrrolidin-3-ol], the figures for the EC50 in assay [1] and in assay [2] were 0.0793 µM and above 10 µM, respectively.
Turning to `CC1(O)CCN(c2nc(C(C)(C)C)nc3c2ncn3Cc2n[nH]cc2C(F)(F)F)C1` (stereo not drawn) [Example 85, 1-[2-tert-butyl-9-[[4-(trifluoromethyl)-1H-pyrazol-3-yl]methyl]purin-6-yl]-3-methylpyrrolidin-3-ol], the EC50 in assay [1] is 0.0221 µM; in assay [2] it was above 10 µM.
The corresponding values for `CC(C)(C)c1nc(N2CC[C@H](O)C2)c2ncn(Cc3ccccc3C(F)(F)F)c2n1` [Example 86, (3S)-1-[2-tert-butyl-9-[[2-(trifluoromethyl)phenyl]methyl]purin-6-yl]pyrrolidin-3-ol] are 0.0011 µM and above 10 µM.
Regarding `CC(C)(C)c1nc(N2CC[C@H](O)C2)c2ncn(Cc3cccc(Cl)c3)c2n1` [Example 87, (3S)-1-[2-tert-butyl-9-[(3-chlorophenyl)methyl]purin-6-yl]pyrrolidin-3-ol], the EC50 is 0.0021 µM in assay [1] and above 10 µM in assay [2].
For `CC(C)(C)c1nc(N2CCC3(COC3)C2)c2ncn(CCC(F)(F)F)c2n1` [Example 89, 7-[2-tert-butyl-9-(3,3,3-trifluoropropyl)purin-6-yl]-2-oxa-7-azaspiro[3.4]octane] the same measures were 0.573 µM and above 10 µM.
Take `CC(C)(C)c1nc(N2CC[C@H](O)C2)c2ncn(Cc3ccccc3S(C)(=O)=O)c2n1` [Example 90, (3S)-1-[2-tert-butyl-9-[(2-methylsulfonylphenyl)methyl]purin-6-yl]pyrrolidin-3-ol]: the values for the EC50 in assay [1] and in assay [2] were 0.0079 µM and above 10 µM, respectively.
The corresponding values for `CC(C)(C)c1nc(N2CC[C@H](O)C2)c2ncn(Cc3cccnc3Cl)c2n1` [Example 91, (3S)-1-[2-tert-butyl-9-[(2-chloropyridin-3-yl)methyl]purin-6-yl]pyrrolidin-3-ol] are 0.0017 µM and above 10 µM.
For `CC(C)(C)c1nc(N2CC[C@H](O)C2)c2ncn(Cc3ncccc3Cl)c2n1` [Example 92, (3S)-1-[2-tert-butyl-9-[(3-chloropyridin-2-yl)methyl]purin-6-yl]pyrrolidin-3-ol] the same measures were 0.0084 µM and above 10 µM.
